From US20230293599A1, “BACTERIAL COMPOSITIONS WITH ANTI-INFLAMMATORY ACTIVITY” (Universiteit Gent, priority 2020, published 2023)
Like-named read-outs stand apart in the source and are kept apart here. Residues, ends and D or L forms follow the SMILES beside them.

Tests used:
G. haemolysans = experiment: Biolog Phenotype Microarray PM1-2 growth on carbon sources; format: cell-based, Gemella haemolysans; settings: for growth of G. haemolysans on the carbon source (in words): AUC lower than 50 = not supporting growth
Method: (§1) Using Phenotype Microarray (PM) panels (Biolog), the influence of 190 carbon sources on the growth of the potential probiotic species R. mucilaginosa, R. dentocariosa, R. gilardii, G. haemolysans, and common respiratory pathogens P. aeruginosa, and S. aureus was determined. PM1 and PM2 panels (Biolog) were inoculated according to the manufacturer's instructions. Growth curves were generated for 35 hours by measuring the absorbance at 590 nm using an EnVision (Perkin Elmer) plate reader.

S. aureus = format: cell-based, Staphylococcus aureus
Method: as §1

R. gilardii = experiment: Biolog Phenotype Microarray PM1-2 growth on carbon sources; format: cell-based, Roseomonas gilardii
Method: as §1

R. dentocariosa = experiment: as above; format: cell-based, Rothia dentocariosa; settings: for growth of R. dentocariosa on the carbon source (in words): AUC lower than 50 = not supporting growth
Method: as §1

P. aeruginosa = experiment: as above; format: cell-based, Pseudomonas aeruginosa; settings: for growth of P. aeruginosa on the carbon source (in words): AUC lower than 50 = not supporting growth
Method: as §1

R. mucilaginosa = experiment: as above; format: cell-based, Rothia mucilaginosa; settings: for growth of R. mucilaginosa on the carbon source (in words): AUC lower than 50 = not supporting growth
Method: as §1

[1] = 35 hours, absorbance 590 nm, n = 1, cells without values AUC < 50

Row | Molecule | AUC of growth curve, G. haemolysans (G. haemolysans; [1]) | AUC of growth curve, S. aureus (S. aureus) | AUC of growth curve, R. gilardii (R. gilardii; [1]) | AUC of growth curve, R. dentocariosa (R. dentocariosa; [1]) | AUC of growth curve, P. aeruginosa (P. aeruginosa; [1]) | AUC of growth curve, R. mucilaginosa (R. mucilaginosa; [1]) | also measured
1 | CC(O)C(C)O (stereo not drawn) [2,3-Butanediol] | 145.4 | 147.2 |  |  |  |  | 
2 | O=CC[C@H](O)[C@H](O)CO [2-Deoxy-D-Ribose] | 180.3 | 580.2 | 366.7 | 376.6 | 529.9 |  | 
3 | O=C(CO)[C@@H](O)[C@H](O)[C@@H](O)C(=O)O [5-Keto-D-Gluconic Acid] |  | 432.1 |  |  |  |  | AUC of growth curve, R. gilardii (R. gilardii): 423.9; AUC of growth curve, G. haemolysans (G. haemolysans): 122.8; AUC of growth curve, R. dentocariosa (R. dentocariosa): 277.0; AUC of growth curve, P. aeruginosa (P. aeruginosa): 1312.5
4 | CC(=O)CC(=O)O [Acetoacetic Acid] |  | 928.3 | 172.4 | 229.8 | 301.3 | 301.4 | 
5 | Nc1ncnc2c1ncn2[C@@H]1O[C@H](CO)[C@@H](O)[C@H]1O [Adenosine] | 65.6 | 472.6 |  |  | 398.1 |  | 
6 | O=C[C@@H](O)[C@H](O)[C@H](O)CO [D-Arabinose] | 88.1 | 705.0 | 356.3 | 305.6 | 763.4 |  | 
7 | O=C(CO)[C@@H](O)[C@H](O)[C@H](O)COP(=O)(O)O [D-Fructose-6-Phosphate] | 134.2 | 437.8 |  | 87.1 | 783.8 | 127.5 | 
8 | O=C(CO)[C@@H](O)[C@H](O)[C@H](O)CO [D-Fructose] |  | 992.9 |  |  |  |  | AUC of growth curve, R. gilardii (R. gilardii): 315.8; AUC of growth curve, G. haemolysans (G. haemolysans): 88.8; AUC of growth curve, R. dentocariosa (R. dentocariosa): 109.5; AUC of growth curve, R. mucilaginosa (R. mucilaginosa): 1111.2; AUC of growth curve, P. aeruginosa (P. aeruginosa): 413.3
9 | O=C[C@H](O)[C@@H](O)[C@@H](O)[C@H](O)CO [D-Galactose] |  | 834.0 | 186.6 | 533.6 | 720.0 | 101.1 | 
10 | N[C@H]1C(O)O[C@H](CO)[C@@H](O)[C@@H]1O (stereo partly drawn) [D-Glucosamine] | 618.4 | 884.6 | 196.5 | 200.6 | 840.0 |  | 
11 | O=C[C@@H](O)[C@@H](O)[C@H](O)[C@H](O)CO [D-Mannose] | 218.6 | 729.5 |  | 106.1 | 495.0 | 1017.6 | 
12 | O=C(CO)[C@H](O)[C@H](O)[C@H](O)CO [D-Psicose] |  | 698.5 |  |  |  |  | AUC of growth curve, R. gilardii (R. gilardii): 86.7; AUC of growth curve, R. dentocariosa (R. dentocariosa): 428.2; AUC of growth curve, R. mucilaginosa (R. mucilaginosa): 436.4; AUC of growth curve, P. aeruginosa (P. aeruginosa): 771.3
13 | O=C[C@H](O)[C@H](O)[C@H](O)CO [D-Ribose] | 627.5 | 769.0 | 718.5 | 431.1 | 1450.3 | 371.4 | 
14 | O=C[C@H](O)[C@@H](O)[C@H](O)CO [D-Xylose] | 581.3 | 92.4 | 310.4 | 257.9 | 1218.3 | 157.4 | 
15 | NC(=O)[C@@H](O)[C@@H](O)[C@H](O)[C@@H](O)C=O [Glucuronamide] | 97.6 | 62.8 | 53.3 | 124.2 | 820.8 | 84.9 | 
16 | OCC(O)CO [Glycerol] |  | 802.4 | 59.0 | 998.9 | 78.3 | 786.8 | growth of R. dentocariosa on the carbon source (in words) (R. dentocariosa): allowed growth; growth of R. mucilaginosa on the carbon source (in words) (R. mucilaginosa): allowed growth; growth of P. aeruginosa on the carbon source (in words) (P. aeruginosa): did not support growth
17 | NCC(=O)N[C@@H](CCC(=O)O)C(=O)O [Glycyl-L-Glutamic Acid] (H-Gly-Glu-OH) |  | 871.5 |  |  |  |  | AUC of growth curve, R. gilardii (R. gilardii): 61.5; AUC of growth curve, R. mucilaginosa (R. mucilaginosa): 140.3; AUC of growth curve, P. aeruginosa (P. aeruginosa): 285.6

Row | Molecule | AUC of growth curve, G. haemolysans (G. haemolysans; [1]) | AUC of growth curve, S. aureus (S. aureus) | AUC of growth curve, R. gilardii (R. gilardii; [1]) | AUC of growth curve, R. dentocariosa (R. dentocariosa; [1]) | AUC of growth curve, P. aeruginosa (P. aeruginosa; [1]) | AUC of growth curve, R. mucilaginosa (R. mucilaginosa; [1]) | also measured
18 | O=CC(=O)O [Glyoxylic Acid] |  |  | 85.2 | 53.5 |  | 142.0 | 
19 | C[C@H](N)C(=O)NCC(=O)O [L-Alanyl-Glycine] (H-Ala-Gly-OH) |  | 809.1 |  |  |  |  | AUC of growth curve, R. gilardii (R. gilardii): 76.2; AUC of growth curve, G. haemolysans (G. haemolysans): 114.6; AUC of growth curve, P. aeruginosa (P. aeruginosa): 180.2
20 | O=C[C@H](O)[C@@H](O)[C@@H](O)CO [L-Arabinose] | 120.4 | 356.7 | 804.7 | 314.8 | 1269.0 | 195.3 | 
21 | C[C@H](O)[C@@H](O)[C@@H](O)[C@H](O)C=O [L-Fucose] | 95.6 | 277.6 | 86.6 | 478.0 | 701.4 | 155.6 | 
22 | C[C@H](O)C(=O)O [L-Lactic Acid] |  | 773.2 | 70.3 | 632.8 | 349.6 | 292.5 | 
23 | O=C(O)C[C@H](O)C(=O)O [L-Malic Acid] | 73.9 | 648.8 | 202.5 |  | 808.2 |  | 
24 | N[C@@H](Cc1ccccc1)C(=O)O [L-Phenylalanine] | 64.4 | 167.3 |  |  |  |  | 
25 | COC(=O)C(C)=O [Methyl Pyruvate] | 870.9 | 611.5 |  | 74.1 | 818.7 |  | 
26 | CC(=O)N[C@H]1C(O)O[C@H](CO)[C@@H](O)[C@@H]1O (stereo partly drawn) [N-Acetyl-D-Glucosamine] | 711.9 | 643.5 |  |  |  |  | growth of G. haemolysans on the carbon source (in words) (G. haemolysans): supported growth; growth of P. aeruginosa on the carbon source (in words) (P. aeruginosa): did not support growth
27 | CC(=O)N[C@H]1[C@@H](O)[C@H](O)[C@@H](CO)O[C@H]1O [N-Acetyl-β-D-Mannosamine] | 375.8 | 738.3 |  |  |  |  | growth of G. haemolysans on the carbon source (in words) (G. haemolysans): supported growth; growth of P. aeruginosa on the carbon source (in words) (P. aeruginosa): did not support growth
28 | O=C(O)[C@]1(O)C[C@@H](O)[C@@H](O)[C@H](O)C1 [Quinic Acid] |  | 255.3 | 92.0 |  | 1197.1 | 68.3 | 
29 | C/C=C/C=C/C(=O)O [Sorbic Acid] | 90.3 | 495.2 | 56.2 | 82.4 |  |  | 
30 | O=C(CO)[C@@H](O[C@H]1O[C@H](CO)[C@@H](O)[C@H](O)[C@H]1O)[C@H](O)[C@H](O)CO [Turanose] |  | 1146.9 |  | 296.1 |  | 91.9 | growth of R. dentocariosa on the carbon source (in words) (R. dentocariosa): stimulated only the growth; growth of P. aeruginosa on the carbon source (in words) (P. aeruginosa): did not support growth
31 | CO[C@@H]1O[C@H](CO)[C@@H](O)[C@H](O)[C@H]1O [β-Methyl-D-Glucoside] |  | 779.9 | 56.3 | 405.7 |  | 599.6 | growth of R. dentocariosa on the carbon source (in words) (R. dentocariosa): allowed growth; growth of R. mucilaginosa on the carbon source (in words) (R. mucilaginosa): allowed growth; growth of P. aeruginosa on the carbon source (in words) (P. aeruginosa): did not support growth
32 | Dextrin | 66.1 |  |  | 135.6 |  |  | AUC of growth curve, S. aureus (S. aureus; [1]): 908.1; growth of R. dentocariosa on the carbon source (in words) (R. dentocariosa): stimulated only the growth; growth of P. aeruginosa on the carbon source (in words) (P. aeruginosa): did not support growth
33 | Maltotriose |  | 943.9 | 54.2 | 1276.1 |  | 1074.7 | growth of R. dentocariosa on the carbon source (in words) (R. dentocariosa): allowed growth; growth of R. mucilaginosa on the carbon source (in words) (R. mucilaginosa): allowed growth; growth of P. aeruginosa on the carbon source (in words) (P. aeruginosa): did not support growth
34 | Tween 40 | 101.2 | 154.9 |  |  |  |  | 
